From US10238621B2, “9,10-α,α-OH-taxane analogs and methods for production thereof” (priority 2003, dated 2019)

How the values were obtained:
Assay type in all cases: cell-based
[1] = test system: Ovarian Carcinoma 1A9PTX10; test: Inhibition of cell growth, Ovarian Carcinoma 1A9PTX10 (MDR +, tubulin mutant)
[2] = test system: MDR sensitive cancer cell lines; test: Inhibition of cell growth against MDR sensitive cancer cell lines; settings: result in words
[3] = test system: Breast Cancer MCF-7 NCI-AR; test: Inhibition of cell growth, Breast Cancer MCF-7 NCI-AR (MDR +, tubulin wild type); settings: for Inhibition: MCF-7 NCI-AR
[4] = test system: Squamous Cell Carcinoma FADU; test: Inhibition of cell growth, Squamous Cell Carcinoma FADU (MDR −, tubulin wild type); settings: concentration 0.05 ug/mL
[5] = test system: Neuroblastoma SK-N-AS; test: Inhibition of cell growth, Neuroblastoma SK-N-AS (MDR −, tubulin wild type)
[6] = Homo sapiens, MCF7, MCF-7 NCI-AR, concentration 0.5 ug/mL

## C=CC1O[C@H]2C[C@H]3OC[C@@]3(OC(C)=O)[C@H]3[C@H](OC(=O)c4ccccc4)[C@]4(O)C[C@H](OC(=O)[C@H](O)[C@@H](NC(=O)c5ccccc5)c5ccccc5)C(C)=C([C@H](OC(C)=O)[C@H](O1)[C@]23C)C4(C)C (stereo partly drawn) [TPI 251]
[1]; Homo sapiens, 1A9/ptx-10, 1A9PTX10, concentration 0.25 ug/mL
  inhibition at 0.25 µg/mL: 93%
[1]; Homo sapiens, 1A9/ptx-10, 1A9PTX10, concentration 0.5 ug/mL
  inhibition at 0.5 µg/mL: 96%
[2]
  inhibition of cell growth against MDR sensitive cancer cell lines: excellent inhibition of cell growth
[3]; [6]
  inhibition at 0.5 µg/mL: 45%
[3]; Homo sapiens, MCF7, MCF-7 NCI-AR, concentration 1.0 ug/mL
  inhibition at 1 µg/mL: 65%
[3]; Homo sapiens, MCF7, MCF-7 NCI-AR, concentration 2.0 ug/mL
  inhibition at 2 µg/mL: 94%

## C=CC1O[C@H]2C[C@H]3OC[C@@]3(OC(C)=O)[C@H]3[C@H](OC(=O)c4ccccc4)[C@]4(O)C[C@H](OC(=O)[C@H](O)[C@H](CC(C)C)NC(=O)OC(C)(C)C)C(C)=C([C@H](OC(C)=O)[C@H](O1)[C@]23C)C4(C)C (stereo partly drawn) [TPI 287, 7,9-acrolein acetal-10-α-acetyl-2′-R,S-hydroxy-3′-S-isobutyl-3′-N-t-butoxy carbonyl taxane]
[4]; Homo sapiens
  inhibition at 0.05 µg/mL: 56%
[1]; Homo sapiens, 1A9/ptx-10, 1A9PTX10, concentration 0.1 ug/mL
  inhibition at 0.1 µg/mL: 51%
[1]; Homo sapiens, 1A9/ptx-10, 1A9PTX10, concentration 0.2 ug/mL
  inhibition at 0.2 µg/mL: 85%
[2]
  inhibition of cell growth against MDR sensitive cancer cell lines: excellent inhibition of cell growth
[5]; Homo sapiens, concentration 0.05 ug/mL
  inhibition at 0.05 µg/mL: 58%
[3]; Homo sapiens, MCF7, MCF-7 NCI-AR, concentration 0.031 ug/mL
  inhibition at 0.031 µg/mL: 13%
[3]; Homo sapiens, MCF7, MCF-7 NCI-AR, concentration 0.061 ug/mL
  inhibition at 0.061 µg/mL: 22%
[3]; Homo sapiens, MCF7, MCF-7 NCI-AR, concentration 0.125 ug/mL
  inhibition at 0.125 µg/mL: 37%
[3]; Homo sapiens, MCF7, MCF-7 NCI-AR, concentration 0.25 ug/mL
  inhibition at 0.25 µg/mL: 47%
[3]; [6]
  inhibition at 0.5 µg/mL: 80%

## CC(=O)O[C@H]1C(=O)[C@@]2(C)[C@H]([C@H](OC(=O)c3ccccc3)[C@]3(O)C[C@H](OC(=O)[C@H](O)[C@@H](NC(=O)c4ccccc4)c4ccccc4)C(C)=C1C3(C)C)[C@]1(OC(C)=O)CO[C@@H]1C[C@@H]2O [Paclitaxel, reference compound]
[4]
  Inhibition: 47%
[1]; 1A9PTX10, concentration 5 ug/mL
  Inhibition: 55%
[5]; concentration 0.1 ug/mL
  Inhibition: 54%
[3]; concentration 40 ug/mL
  Inhibition: 55%

## C=CC1O[C@H]2C[C@H]3OC[C@@]3(OC(C)=O)[C@H]3[C@H](OC(=O)c4ccccc4)[C@]4(O)C[C@H](OC(=O)[C@H](O)[C@@H](NC(=O)c5ccccc5)c5ccccc5)C(C)=C([C@H](OC(C)=O)[C@H](O1)[C@]23C)C4(C)C (stereo partly drawn) [TPI 285]
[2]
  inhibition of cell growth against MDR sensitive cancer cell lines: excellent inhibition of cell growth
[3]; concentration 0.5 ug/mL
  Inhibition: 41%
[3]; concentration 1.0 ug/mL
  Inhibition: 51%
[3]; concentration 2.0 ug/mL
  Inhibition: 85%
